Experimental data taken from patent publication US20220153751A1, “BIFUNCTIONAL COMPOUNDS” (BioTheryX, Inc., priority 2018, published 2022).

Key:
Format in all cases: cell-based
GSPT1 = biological target: T1, GSPT1 (Homo sapiens, UniProt P15170+Q96SW2); experiment: GSPT1 degradation assay (Western blot, MV-4-11 cells); conditions: MV4-11, 6-8 h
T1 construct: Whole cell extracts were prepared using RIPA buffer; endogenous in cells; host or cells: MV-4-11
Description: (§1) MV-4-11 cells were grown in RPMI 1640 media supplemented with 10% fetal bovine serum, streptomycin and penicillin.
(§2) Cells were cultured at approximately 10^6 cells per mL and incubated in DMSO or the indicated compound for 6-8 h. Whole cell extracts were prepared using RIPA buffer according to manufacturer's protocol (Pierce). Briefly, 3×10^6 cells were washed once in PBS, the cell pellets were resuspended in RIPA buffer and allowed to incubate for 15 minutes on ice. Cells debris was removed by centrifugation and the cleared whole cell lysates were transferred to new tubes for further analysis.
(§3) For Western blot analysis, whole cell protein extracts were separated on 4-12% SDS-polyacrylamide gels, transferred to nitrocellulose and probed with the indicated primary antibodies. Membranes were subsequently washed and probed with the appropriate IRDye secondary antibodies (LI-COR). The signal was detected using the Odyssey Imaging System (LI-COR).
(§4) The following antibodies were used in these studies: Anti-eRF3/GSPT1: Abcam, ab126090 (Cambridge, Mass.); Anti-Ikaros: Abcam, ab191394 (Cambridge, Mass.); Anti-CK1α: Abcam, ab108296 (Cambridge, Mass.); Anti-CDK9: Santa Cruz Biotechnology, sc13130 (Dallas, Tex.); Anti-CDK16: Millipore Sigma, HPA001366 (St. Louis, Mo.); 3-actin (8H10comD10) mouse monoclonal antibody: Cell Signaling Technology, #3700 (Danvers, Mass.); IRDye 680RD Goat anti-rabbit antibody: LI-COR, 926-68071 (Lincoln, Nebr.); IRDye 800CW Goat anti-mouse antibody: LI-COR, 926-32210 (Lincoln, Nebr.).
(§5) CDK9 activities are shown in Table 4 at two different concentrations. CDK16 activities are shown in Table 5 at two different concentrations. In each of Tables 1-5, the % degradation values are reported as “A”, “B”, “C”, or “D”. “A” represents a % degradation value of less than 25% (value <25%). “B” represents a % degradation value of equal to or more than 25% and less than 50% (25%≤value<50%). “C” represents a % degradation value of equal to or more than 50% and less than 75% (50%≤value<75%). “D” represents a % degradation value of equal to or more than 75% (value ≥75%).

MOLM-13 cells = experiment: MOLM-13 cell viability assay (CellTiter-Glo); conditions: Homo sapiens, MOLM-13, 72 h, 3 days, read-out: MOLM-13 Cell Viability % DMSO at 1 μM
Description: MOLM-13 cells were cultured in RPMI 1640 media supplemented with 10% fetal bovine serum, streptomycin and penicillin, and were plated in walled 96-well plates at 2500 cells/well. Cells were incubated in DMSO (control) or the indicated compound for 3 days at 37° C. and 5% CO2. Following the incubation period, 100 μL of CellTiterGlow (CTG) reagent (CellTiter-Glo® Luminescent Cell Viability Assay, Promega (Madison, Wis.)) was added to each well. Following a 10 minutes incubation with shaking, luminescence was measured using the EnVision Multimode plate reader.
The MOLM-13 cell viability values as % DMSO are reported as “A”, “B”, “C”, or “D”. “A” represents a % viability value of less than 50% (value <50%). “B” represents a % viability value of equal to or more than 50% and less than 70% (50%≤value<70%). “C” represents a % viability value of equal to or more than 70% and less than 90% (70%≤value<90%). “D” represents a % viability value of equal or more than 90% (value ≥90%).

TNF-α = TNF-α inhibition assay, LPS-induced PBMCs / CD14+ monocytes (Meso Scale); conditions: 1 h pretreatment, 100 ng/mL LPS 18-24 h
Description: (§6) Either frozen primary blood mononuclear cells (PBMCs) or frozen CD14+ mobilized peripheral blood monocytes were purchased from AllCells (PB003F, Normal Peripheral Blood MNC (Alameda, Calif.)). Cells were quick thawed, washed 1-time with RPMI-1640 (10% FBS/1% Pen-Strep) and plated in 96 well plates at 200,000 cells per well. Cells were pretreated with DMSO only or with the indicated compound for 1 h and then induced with 100 ng/mL lipopolysaccharide (LPS) for 18-24 h. The supernatant was analyzed for IL-1β, IL-6, and TNFα, using Meso Scale assay according to manufacturer's protocol. The negative control wells were treated with DMSO.
(§7) In Table 6, the % inhibition values are reported as “A”, “B”, “C”, or “D”. “A” represents a % inhibition value of less than 50% (value <50%). “B” represents a % inhibition value of equal to or more than 50% and less than 70% (50%≤value<70%). “C” represents a % inhibition value of equal to or more than 70% and less than 90% (70%≤value<90%). “D” represents a % inhibition value of equal or more than 90% (value ≥90%). In Table 7, the fold-change values are reported as “A”, “B”, “C”, or “D”. “A” represents a fold-change value of equal to or less than 0.1 (value ≤0.1). “B” represents a fold-change value of more than 0.1 and equal to or less than 0.5 (0.1<value≤0.5). “C” represents a fold-change value of more than 0.5 and equal to or less than 1 (0.5<value≤1). “D” represents a fold-change value of more than 1 (value >1).

IL-1β = IL-1β inhibition assay, LPS-induced PBMCs / CD14+ monocytes (Meso Scale); conditions: 1 h pretreatment, 100 ng/mL LPS 18-24 h
Description: as §6, §7

IL-6 = IL-6 inhibition assay, LPS-induced PBMCs / CD14+ monocytes (Meso Scale); conditions: 1 h pretreatment, 100 ng/mL LPS 18-24 h
Description: as §6, §7

IKAROS = biological target: T2, IKAROS (Homo sapiens, UniProt Q13422+Q96SW2); experiment: IKAROS degradation assay (Western blot, MV-4-11 cells); conditions: MV4-11, 6-8 h
T2 construct: endogenous in cells; host or cells: MV-4-11
Description: as §1, §2, §3, §4, §5

CDK16 = biological target: T3, CDK16 (Homo sapiens, UniProt Q00536); experiment: CDK16 degradation assay (Western blot, MV-4-11 cells); conditions: 6-8 h; for Dmax at 0.1 µM: MV4-11, 0.1 μM; for Dmax at 1 µM: MV4-11, 1 μM
T3 construct: Whole cell extracts were prepared using RIPA buffer; endogenous in cells; host or cells: MV-4-11
Description: as §1, §2, §3, §4, §5

CDK9 = biological target: T4, CDK9 (Homo sapiens, UniProt P50750); experiment: CDK9 degradation assay (Western blot, MV-4-11 cells); conditions: 6-8 h; for Dmax at 0.1 µM: MV4-11, 0.1 μM; for Dmax at 1 µM: MV4-11, 1 μM
T4 construct: Whole cell extracts were prepared using RIPA buffer; endogenous in cells; host or cells: MV-4-11
Description: as §1, §2, §3, §4, §5

T3 sequence (Q00536 whole entry): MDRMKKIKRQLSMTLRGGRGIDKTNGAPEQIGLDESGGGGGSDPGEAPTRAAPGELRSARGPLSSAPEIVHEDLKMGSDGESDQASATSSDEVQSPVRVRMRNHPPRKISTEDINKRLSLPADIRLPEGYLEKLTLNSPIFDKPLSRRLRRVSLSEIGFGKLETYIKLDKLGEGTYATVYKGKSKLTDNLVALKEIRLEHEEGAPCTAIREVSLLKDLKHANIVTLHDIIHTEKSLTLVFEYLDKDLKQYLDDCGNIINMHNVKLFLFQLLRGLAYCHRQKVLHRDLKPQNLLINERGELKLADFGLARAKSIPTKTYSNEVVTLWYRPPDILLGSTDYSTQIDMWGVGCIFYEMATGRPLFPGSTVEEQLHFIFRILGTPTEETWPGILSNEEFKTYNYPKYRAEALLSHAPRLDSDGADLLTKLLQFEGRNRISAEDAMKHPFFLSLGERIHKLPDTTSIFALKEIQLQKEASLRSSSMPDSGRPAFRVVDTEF
T2 sequence (Q13422 whole entry): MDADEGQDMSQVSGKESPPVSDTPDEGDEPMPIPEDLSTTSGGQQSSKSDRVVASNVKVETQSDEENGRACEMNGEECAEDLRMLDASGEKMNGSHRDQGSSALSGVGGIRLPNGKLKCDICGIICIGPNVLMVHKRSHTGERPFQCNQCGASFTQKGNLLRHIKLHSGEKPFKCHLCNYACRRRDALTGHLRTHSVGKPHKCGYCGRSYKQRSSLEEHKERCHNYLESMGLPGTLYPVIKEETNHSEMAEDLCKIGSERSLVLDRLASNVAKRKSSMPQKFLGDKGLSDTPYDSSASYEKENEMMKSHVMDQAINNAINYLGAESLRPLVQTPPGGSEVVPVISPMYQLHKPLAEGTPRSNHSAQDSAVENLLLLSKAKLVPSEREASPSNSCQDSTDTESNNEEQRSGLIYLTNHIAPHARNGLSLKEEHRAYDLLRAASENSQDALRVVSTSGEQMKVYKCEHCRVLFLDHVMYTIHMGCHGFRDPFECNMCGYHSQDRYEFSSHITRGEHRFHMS
T2 sequence (Q96SW2 whole entry): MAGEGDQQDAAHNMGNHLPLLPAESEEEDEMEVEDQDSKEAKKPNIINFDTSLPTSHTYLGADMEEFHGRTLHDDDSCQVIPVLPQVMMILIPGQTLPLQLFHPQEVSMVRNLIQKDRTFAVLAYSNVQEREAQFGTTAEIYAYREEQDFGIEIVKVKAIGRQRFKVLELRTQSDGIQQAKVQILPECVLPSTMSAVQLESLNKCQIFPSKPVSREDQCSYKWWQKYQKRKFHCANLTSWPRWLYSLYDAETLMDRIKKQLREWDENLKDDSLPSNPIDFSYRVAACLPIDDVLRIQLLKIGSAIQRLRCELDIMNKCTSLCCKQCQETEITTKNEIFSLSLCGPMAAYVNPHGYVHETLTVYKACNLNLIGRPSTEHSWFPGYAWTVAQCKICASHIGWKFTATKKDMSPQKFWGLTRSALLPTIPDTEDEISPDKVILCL
T2 sequence (Q16531 whole entry partner): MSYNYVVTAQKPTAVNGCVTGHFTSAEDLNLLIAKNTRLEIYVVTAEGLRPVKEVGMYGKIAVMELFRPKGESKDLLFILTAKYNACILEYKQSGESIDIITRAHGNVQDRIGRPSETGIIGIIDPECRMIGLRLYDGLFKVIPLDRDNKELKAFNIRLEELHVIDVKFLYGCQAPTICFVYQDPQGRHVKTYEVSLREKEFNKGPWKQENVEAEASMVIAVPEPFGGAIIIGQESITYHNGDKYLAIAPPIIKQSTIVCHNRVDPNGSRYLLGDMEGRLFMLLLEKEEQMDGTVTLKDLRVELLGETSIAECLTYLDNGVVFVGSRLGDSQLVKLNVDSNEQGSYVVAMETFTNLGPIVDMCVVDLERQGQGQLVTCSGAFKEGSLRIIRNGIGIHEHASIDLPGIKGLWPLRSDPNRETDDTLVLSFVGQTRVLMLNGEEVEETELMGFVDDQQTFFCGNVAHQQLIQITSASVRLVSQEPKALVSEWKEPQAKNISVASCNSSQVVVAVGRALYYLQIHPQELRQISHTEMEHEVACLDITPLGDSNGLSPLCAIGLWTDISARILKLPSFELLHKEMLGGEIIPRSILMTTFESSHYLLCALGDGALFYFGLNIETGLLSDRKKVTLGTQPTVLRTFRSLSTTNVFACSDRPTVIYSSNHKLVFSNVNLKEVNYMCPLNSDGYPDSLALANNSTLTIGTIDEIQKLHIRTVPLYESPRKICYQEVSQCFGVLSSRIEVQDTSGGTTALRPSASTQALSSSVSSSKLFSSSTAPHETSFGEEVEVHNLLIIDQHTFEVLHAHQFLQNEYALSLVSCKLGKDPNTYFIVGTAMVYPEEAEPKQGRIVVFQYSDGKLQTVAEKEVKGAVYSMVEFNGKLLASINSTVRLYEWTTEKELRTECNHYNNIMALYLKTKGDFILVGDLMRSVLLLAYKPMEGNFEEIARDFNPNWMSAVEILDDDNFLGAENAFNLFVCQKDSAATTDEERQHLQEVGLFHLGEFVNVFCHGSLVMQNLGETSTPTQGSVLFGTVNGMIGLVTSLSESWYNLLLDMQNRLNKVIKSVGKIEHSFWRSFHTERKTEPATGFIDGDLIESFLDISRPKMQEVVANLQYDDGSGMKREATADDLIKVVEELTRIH
T4 sequence (P50750 whole entry): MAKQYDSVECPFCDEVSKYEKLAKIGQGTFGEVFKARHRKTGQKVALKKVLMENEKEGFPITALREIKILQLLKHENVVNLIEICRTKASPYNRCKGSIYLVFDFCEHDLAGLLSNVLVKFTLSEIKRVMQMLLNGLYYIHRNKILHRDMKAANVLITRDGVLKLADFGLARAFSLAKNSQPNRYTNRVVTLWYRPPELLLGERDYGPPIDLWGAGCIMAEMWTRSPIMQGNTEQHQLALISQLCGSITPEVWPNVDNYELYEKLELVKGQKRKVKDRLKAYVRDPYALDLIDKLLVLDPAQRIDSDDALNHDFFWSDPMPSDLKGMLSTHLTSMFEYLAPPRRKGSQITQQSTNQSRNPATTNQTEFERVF
T1 sequence (P15170 whole entry): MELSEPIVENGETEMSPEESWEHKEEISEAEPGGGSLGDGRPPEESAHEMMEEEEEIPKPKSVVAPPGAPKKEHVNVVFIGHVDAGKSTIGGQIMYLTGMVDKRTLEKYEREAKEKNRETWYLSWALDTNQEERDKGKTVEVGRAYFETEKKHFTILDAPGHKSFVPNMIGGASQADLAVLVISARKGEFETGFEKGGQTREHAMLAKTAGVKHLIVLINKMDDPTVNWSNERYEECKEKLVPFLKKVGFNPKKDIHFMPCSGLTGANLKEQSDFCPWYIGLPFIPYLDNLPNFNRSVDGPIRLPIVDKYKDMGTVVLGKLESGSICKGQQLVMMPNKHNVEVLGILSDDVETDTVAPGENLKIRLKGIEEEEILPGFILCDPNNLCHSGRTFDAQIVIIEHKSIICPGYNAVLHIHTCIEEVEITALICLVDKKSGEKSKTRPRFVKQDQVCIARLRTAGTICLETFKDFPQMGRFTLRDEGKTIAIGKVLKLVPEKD
T1 sequence (Q96SW2 whole entry): as the sequence (Q96SW2 whole entry) above
T1 sequence (Q16531 whole entry partner): as the sequence (Q16531 whole entry partner) above

Row | SMILES | Dmax at 1 µM (GSPT1) [%] | viability at 1 µM (MOLM-13 cells) [%] | inhibition at 1 µM (TNF-α) [%] | inhibition at 1 µM (IL-1β) [%] | inhibition at 1 µM (IL-6) [%] | Dmax at 1 µM (IKAROS) [%] | Dmax at 0.1 µM (CDK16) [%] | Dmax at 1 µM (CDK16) [%] | Dmax at 0.1 µM (CDK9) [%] | Dmax at 1 µM (CDK9) [%]
1 | Cn1ncc(-c2nc(NC3CCC(NC(=O)CCCCCCNC(=O)NCc4scc5c4CN(C4CCC(=O)NC4=O)C5=O)CC3)ncc2Cl)c1CC1CC1 (centres unmarked) [Compound 4, 3-[2-({3-[7-(4-{5-Chloro-4-[5-(cyclopropylmethyl)-1-methyl-1H-pyrazol-4-yl]-2-pyrimidinylamino}cyclohexylamino)-7-oxoheptyl]ureido}methyl)-6-oxo-3-thia-7-azabicyclo[3.3.0]octa-1,4-dien-7-yl]-2,6-piperidinedione] | 25 to 50 | > 90 |  |  |  |  |  |  |  | 
2 | Cn1ncc(-c2nc(N[C@H]3CC[C@H](NC(=O)CCCCCCNC(=O)NCc4cc5c(s4)C(=O)N(C4CCC(=O)NC4=O)C5)CC3)ncc2Cl)c1CC1CC1 (some centres unmarked) [Compound 5, N-((1r,4r)-4-((5-chloro-4-(5-(cyclopropylmethyl)-1-methyl-1H-pyrazol-4-yl)pyrimidin-2-yl)amino)cyclohexyl)-7-(3-((5-(2,6-dioxopiperidin-3-yl)-6-oxo-5,6-dihydro-4H-thieno[2,3-c]pyrrol-2-yl)methyl)ureido)heptanamide] |  | > 90 | 70 to 90 | > 90 | > 90 |  |  |  |  | 
3 | CC(C)(C)c1cnc(CSc2cnc(NC(=O)C3CCN(CC(=O)NCCOCCOCCOCCNc4cccc5c4C(=O)N(C4CCC(=O)NC4=O)C5=O)CC3)s2)o1 (centres unmarked) [Compound 10, N-(5-(((5-(tert-butyl)oxazol-2-yl)methyl)thio)thiazol-2-yl)-1-(14-((2-(2,6-dioxopiperidin-3-yl)-1,3-dioxoisoindolin-4-yl)amino)-2-oxo-6,9,12-trioxa-3-azatetradecyl)piperidine-4-carboxamide] |  |  |  |  |  | 50 to 75 |  |  |  | 
4 | CC(C)(C)c1cnc(CSc2cnc(NC(=O)C3CCN(CCOCCOCCNC(=O)NCc4cc5c(s4)C(=O)N(C4CCC(=O)NC4=O)C5)CC3)s2)o1 (centres unmarked) [Compound 19, N-(5-(((5-(tert-butyl)oxazol-2-yl)methyl)thio)thiazol-2-yl)-1-(1-(5-(2,6-dioxopiperidin-3-yl)-6-oxo-5,6-dihydro-4H-thieno[2,3-c]pyrrol-2-yl)-3-oxo-7,10-dioxa-2,4-diazadodecan-12-yl)piperidine-4-carboxamide] |  | 70 to 90 | 70 to 90 | > 90 | > 90 |  |  |  |  | 
5 | CC(C)(C)c1cnc(CSc2cnc(NC(=O)C3CCN(CCCCCCCCNC(=O)NCc4cc5c(s4)C(=O)N(C4CCC(=O)NC4=O)C5)CC3)s2)o1 (centres unmarked) [Compound 20, N-(5-(((5-(tert-butyl)oxazol-2-yl)methyl)thio)thiazol-2-yl)-1-(8-(3-((5-(2,6-dioxopiperidin-3-yl)-6-oxo-5,6-dihydro-4H-thieno[2,3-c]pyrrol-2-yl)methyl)ureido)octyl)piperidine-4-carboxamide] |  | > 90 |  |  |  | 50 to 75 |  |  |  | 
6 | Cn1ncc(-c2nc(N[C@H]3CC[C@H](NCCCCCCNC(=O)NCc4cc5c(s4)C(=O)N(C4CCC(=O)NC4=O)C5)CC3)ncc2Cl)c1CC1CC1 (some centres unmarked) [Compound 24, 1-(6-(((1r,4r)-4-((5-chloro-4-(5-(cyclopropylmethyl)-1-methyl-1H-pyrazol-4-yl)pyrimidin-2-yl)amino)cyclohexyl)amino)hexyl)-3-((5-(2,6-dioxopiperidin-3-yl)-6-oxo-5,6-dihydro-4H-thieno[2,3-c]pyrrol-2-yl)methyl)urea] |  | > 90 |  |  |  | 25 to 50 | 50 to 75 | ≥ 75 | 50 to 75 | ≥ 75
7 | Cn1ncc(-c2nc(N[C@H]3CC[C@H](NCC(=O)NCCCCCNCC(=O)NCc4cc5c(s4)C(=O)N(C4CCC(=O)NC4=O)C5)CC3)ncc2F)c1CC1CC1 (some centres unmarked) [Compound 25, 2-(((1r,4r)-4-((4-(5-(cyclopropylmethyl)-1-methyl-1H-pyrazol-4-yl)-5-fluoropyrimidin-2-yl)amino)cyclohexyl)amino)-N-(5-((2-(((5-(2,6-dioxopiperidin-3-yl)-6-oxo-5,6-dihydro-4H-thieno[2,3-c]pyrrol-2-yl)methyl)amino)-2-oxoethyl)amino)pentyl)acetamide] |  | > 90 |  |  |  | 25 to 50 |  | 50 to 75 | 50 to 75 | 50 to 75
8 | CC(C)(C)c1cnc(CSc2cnc(NC(=O)C3CCN(CC(=O)NCCCCCNC(=O)NCc4cc5c(s4)C(=O)N(C4CCC(=O)NC4=O)C5=O)CC3)s2)o1 (centres unmarked) [Compound 27, N-(5-(((5-(tert-butyl)oxazol-2-yl)methyl)thio)thiazol-2-yl)-1-(2-((5-(3-((5-(2,6-dioxopiperidin-3-yl)-4,6-dioxo-5,6-dihydro-4H-thieno[2,3-c]pyrrol-2-yl)methyl)ureido)pentyl)amino)-2-oxoethyl)piperidine-4-carboxamide] |  | > 90 |  |  |  | 25 to 50 |  |  |  | 
9 | Cn1ncc(-c2nc(N[C@H]3CC[C@H](NCC(=O)NCCCCNCC(=O)NCc4cc5c(s4)C(=O)N(C4CCC(=O)NC4=O)C5=O)CC3)ncc2Cl)c1CC1CC1 (some centres unmarked) [Compound 36, 2-(((1r,4r)-4-((5-chloro-4-(5-(cyclopropylmethyl)-1-methyl-1H-pyrazol-4-yl)pyrimidin-2-yl)amino)cyclohexyl)amino)-N-(4-((2-(((5-(2,6-dioxopiperidin-3-yl)-4,6-dioxo-5,6-dihydro-4H-thieno[2,3-c]pyrrol-2-yl)methyl)amino)-2-oxoethyl)amino)butyl)acetamide] |  | 50 to 70 | 70 to 90 | 70 to 90 | 70 to 90 |  | < 25 | 25 to 50 | < 25 | 25 to 50
10 | CN(CCNCC(=O)NCc1scc2c1CN(C1CCC(=O)NC1=O)C2=O)CCNC(=O)CN1CCC(C(=O)Nc2ncc(SCc3ncc(C(C)(C)C)o3)s2)CC1 (centres unmarked) [Compound 44, N-(5-(((5-(tert-butyl)oxazol-2-yl)methyl)thio)thiazol-2-yl)-1-(1-(5-(2,6-dioxopiperidin-3-yl)-4-oxo-5,6-dihydro-4H-thieno[3,4-c]pyrrol-1-yl)-8-methyl-3,12-dioxo-2,5,8,11-tetraazatridecan-13-yl)piperidine-4-carboxamide] |  | 50 to 70 | 50 to 70 | 50 to 70 | < 50 |  |  |  |  | 
